pIC50, pKd: −log10 of the molar value. Structures can show the parent of a compound that is named as a salt. Where two headings read alike, the source gives them in different places. Starred links: 1 amine or outer side, 2 acyl side, 3 side chain; linkers in the order of their positions; H or OH if unused. Positions of bridges follow the written chain, without caps; N, C: chain ends. Non-standard residues stand in square brackets, D forms with d. Residues, ends and D or L forms follow the SMILES beside them. Trp(5-OH) = N[C@@H](Cc1c[nH]c2ccc(O)cc12)C(=O)O; NMePhe(4-F) = CN[C@@H](Cc1ccc(F)cc1)C(=O)O; NMehPhe = CN[C@@H](CCc1ccccc1)C(=O)O; NMeAoc(2) = CCCCCC[C@H](NC)C(=O)O; Aad = N[C@@H](CCCC(=O)O)C(=O)O; Gly(cPr) = N[C@H](C(=O)O)C1CC1; NMeK = CN[C@@H](CCCCN)C(=O)O; NMeDap = CN[C@@H](CN)C(=O)O; NMeC = CN[C@@H](CS)C(=O)O; NMeS = CN[C@@H](CO)C(=O)O; Dap = NC[C@H](N)C(=O)O; X5 = O=C(C[*:2])[*:1]
How the values were obtained:
Type in all cases: binding
mouse HER2 (23-653) [1] = target: T1, mouse HER2 (23-653) (Mus musculus, UniProt P70424); test: Surface plasmon resonance (SPR) for assessment of peptide affinity, mouse HER2; set-up: mouse HER2 (23-653) using a Cy5 labeled peptide as a probe; made in house
From the text: Each protein was immobilized either onto a SA sensorchip (Cytiva, BR-1005-31) or CM5 sensorchip (Cytiva, BR-1005-30) to a density of 800-2000 RU.

human HER2 (23-652) = human HER2 (23-652) (Homo sapiens, UniProt P04626); test: Surface plasmon resonance (SPR) for assessment of peptide affinity, human HER2; set-up: towards human HER2 (23-652) and mouse HER2 (23-653); made in house
In short: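 Binding kinetics fitted from sensorgrams with 280 s peptide association then 3000 s dissociation (30 uL/min), using HER2 (23-652) either directly immobilized (SA/CM5) or anti-Fc-captured; 3 M magnesium chloride used for regeneration.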

mouse HER2 (23-653) [2] = target: T1, mouse HER2 (23-653); test: TR-FRET competition assay for peptide potency, mouse HER2; set-up: mouse HER2 (23-653) using a Cy5 labeled peptide as a probe; made in house; host or cells: mammalian cells; details: 0.1 nM mouse HER2, 24 h incubation
[3] = SPR, mouse HER2 extracellular domain, 25° C., 1:1 binding model, read-out: moHER2-SPR-ONC KD
[4] = SPR, human HER2 extracellular domain, 25° C., 1:1 binding model, read-out: huHER2-SPR-ONC KD
[5] = TR-FRET competition with Cy5 labeled peptide probe, read-out: moHER2 TR-FRET IC50
[6] = moHER2 TR-FRET IC50, TR-FRET competition with Cy5 labeled peptide probe

SMILES | pKd (mouse HER2 (23-653) [1]; [3]) | pKd (human HER2 (23-652); [4]) | pIC50 (mouse HER2 (23-653) [2]; [5]) | pKd (mouse HER2 (23-653) [1]) | pKd (human HER2 (23-652)) | pIC50 (mouse HER2 (23-653) [2]; [6])
CC(=O)N[C@H]1CCCC(=O)NC[C@@H](C(=O)N(C)[C@@H](Cc2ccc(F)cc2)C(N)=O)N(C)C(=O)[C@H](C2CC2)NC(=O)[C@H](Cc2c[nH]c3ccccc23)NC(=O)[C@H](Cc2c[nH]c3ccc(O)cc23)NC(=O)[C@H](CO)N(C)C(=O)[C@H](CCc2ccccc2)N(C)C(=O)[C@H](CO)NC(=O)[C@H](Cc2ccc(O)cc2)NC1=O [Example A29, (3S,6S,9S,12S,15S,18S,21S,24S,27S)-9-((1H-indol-3-yl)methyl)-27-acetamido-N-((S)-1-amino-3-(4-fluorophenyl)-1-oxopropan-2-yl)-6-cyclopropyl-12-((5-hydroxy-1H-indol-3-yl)methyl)-24-(4-hydroxybenzyl)-15,21-bis(hydroxymethyl)-N,4,16,19-tetramethyl-5,8,11,14,17,20,23,26,31-nonaoxo-18-phenethyl-1,4,7,10,13,16,19,22,25-nonaazacyclohentriacontane-3-carboxamide] (Ac-[Aad]YS[NMehPhe][NMeS][Trp(5-OH)]W[Gly(cPr)][NMeDap][NMePhe(4-F)]-NH2; lactam 1-9) | 7.57 | 7.52 | 7.28 | – | – | –
CC(=O)N[C@H]1CCCC(=O)NC[C@@H](C(=O)N(C)[C@@H](Cc2ccc(F)cc2)C(=O)N[C@@H](CCCCNC(=O)CN2CCN(CC(=O)O)CCN(CC(=O)O)CCN(CC(=O)O)CC2)C(N)=O)N(C)C(=O)[C@H](C2CC2)NC(=O)[C@H](Cc2c[nH]c3ccccc23)NC(=O)[C@H](Cc2c[nH]c3ccc(O)cc23)NC(=O)[C@H](CCCCNC(=O)CC(=O)O)N(C)C(=O)[C@H](CCc2ccccc2)N(C)C(=O)[C@H](CO)NC(=O)[C@H](Cc2ccc(O)cc2)NC1=O [Example C19] | 8.00 | 8.26 | 8.12 | – | – | –
CC(=O)NCCCC[C@H]1C(=O)N[C@@H](Cc2c[nH]c3ccc(O)cc23)C(=O)N[C@@H](Cc2c[nH]c3ccccc23)C(=O)N[C@@H](C2CC2)C(=O)N(C)[C@H](C(=O)N(C)[C@@H](Cc2ccc(F)cc2)C(N)=O)CSCC(=O)NC[C@H](NC(C)=O)C(=O)N[C@@H](Cc2ccc(O)cc2)C(=O)N[C@@H](CO)C(=O)N(C)[C@@H](CCc2ccccc2)C(=O)N1C [Example A51, (3R,6S,9S,12S,15S,18S,21S,24S,27S)-9-((1H-indol-3-yl)methyl)-27-acetamido-15-(4-acetamidobutyl)-N-((S)-1-amino-3-(4-fluorophenyl)-1-oxopropan-2-y1)-6-cyclopropyl-12-((5-hydroxy-1H-indol-3-yl)methyl)-24-(4-hydroxybenzyl)-21-(hydroxymethyl)-N,4,16,19-tetramethyl-5,8,11,14,17,20,23,26,30-nonaoxo-18-phenethyl-1-thia-4,7,10,13,16,19,22,25,29-nonaazacyclohentriacontane-3-carboxamide] (Ac-[Dap]YS[NMehPhe][NMeK](Ac)[Trp(5-OH)]W[Gly(cPr)][NMeC][NMePhe(4-F)]-NH2; linker 1-9 via X5) | 8.00 | 8.14 | 7.82 | – | – | –
CC(=O)N[C@H]1CCCC(=O)NC[C@@H](C(=O)N(C)[C@@H](Cc2ccc(F)cc2)C(=O)N[C@@H](CCCCNC(=O)CN2CCN(CC(=O)O)CCN(CC(=O)O)CCN(CC(=O)O)CC2)C(N)=O)N(C)C(=O)[C@H]([C@H](C)O)NC(=O)[C@H](Cc2c[nH]c3ccccc23)NC(=O)[C@H](Cc2c[nH]c3ccc(O)cc23)NC(=O)[C@H](CCCCNC(=O)CO)N(C)C(=O)[C@H](CCc2ccccc2)N(C)C(=O)[C@H](CO)NC(=O)[C@H](Cc2ccc(O)cc2)NC1=O [Example C21] | 9.15 | 9.52 | – | – | – | –
CN1C(=O)[C@H](CO)NC(=O)[C@H](Cc2ccc(O)cc2)NC(=O)[C@@H](N)CCC(=O)NC[C@@H](C(=O)N(C)[C@@H](Cc2ccc(F)cc2)C(N)=O)N(C)C(=O)[C@H](C2CC2)NC(=O)[C@H](Cc2c[nH]c3ccccc23)NC(=O)[C@H](Cc2c[nH]c3ccc(O)cc23)NC(=O)[C@H](CCCCNC(=O)C(F)(F)F)N(C)C(=O)[C@@H]1CCc1ccccc1 [Example A33, (3S,6S,9S,12S,15S,18S,21S,24S,27S)-9-((1H-indol-3-yl)methyl)-27-amino-N-((S)-1-amino-3-(4-fluorophenyl)-1-oxopropan-2-yl)-6-cyclopropyl-12-((5-hydroxy-1H-indol-3-yl)methyl)-24-(4-hydroxybenzyl)-21-(hydroxymethyl)-N,4,16,19-tetramethyl-5,8,11,14,17,20,23,26,30-nonaoxo-18-phenethyl-15-(4-(2,2,2-trifluoroacetamido)butyl)-1,4,7,10,13,16,19,22,25-nonaazacyclotriacontane-3-carboxamide TFA salt] | – | – | – | 7.64 | 7.82 | 7.49
CCCCCC[C@H]1C(=O)N(C)[C@@H](CCCCNC(C)=O)C(=O)N[C@@H](Cc2c[nH]c3ccc(O)cc23)C(=O)N[C@@H](Cc2c[nH]c3ccccc23)C(=O)N[C@@H](C2CC2)C(=O)N(C)[C@H](C(=O)N(C)[C@@H](Cc2ccc(F)cc2)C(N)=O)CNC(=O)CCC[C@H](NC(C)=O)C(=O)N[C@@H](Cc2ccc(O)cc2)C(=O)N[C@@H](CO)C(=O)N1C [Example A20, (3S,6S,9S,12S,15S,18S,21S,24S,27S)-9-((1H-indol-3-yl)methyl)-27-acetamido-15-(4-acetamidobutyl)-N-((S)-1-amino-3-(4-fluorophenyl)-1-oxopropan-2-yl)-6-cyclopropyl-18-hexyl-12-((5-hydroxy-1H-indol-3-yl)methyl)-24-(4-hydroxybenzyl)-21-(hydroxymethyl)-N,4,16,19-tetramethyl-5,8,11,14,17,20,23,26,31-nonaoxo-1,4,7,10,13,16,19,22,25-nonaazacyclohentriacontane-3-carboxamide] (Ac-[Aad]YS[NMeAoc(2)][NMeK](Ac)[Trp(5-OH)]W[Gly(cPr)][NMeDap][NMePhe(4-F)]-NH2; lactam 1-9) | 8.60 | – | 8.33 | – | – | –
CC(=O)NCCCC[C@H]1C(=O)N[C@@H](Cc2c[nH]c3ccc(O)cc23)C(=O)N[C@@H](Cc2c[nH]c3ccccc23)C(=O)N[C@@H](C2CC2)C(=O)N(C)[C@H](C(=O)N(C)[C@@H](Cc2ccc(F)cc2)C(N)=O)CNC(=O)CC[C@H](N)C(=O)N[C@@H](Cc2ccc(O)cc2)C(=O)N[C@@H](CO)C(=O)N(C)[C@@H](CCc2ccccc2)C(=O)N1C [Example A32, (3S,6S,9S,12S,15S,18S,21S,24S,27S)-9-((1H-indol-3-yl)methyl)-15-(4-acetamidobutyl)-27-amino-N-((S)-1-amino-3-(4-fluorophenyl)-1-oxopropan-2-yl)-6-cyclopropyl-12-((5-hydroxy-1H-indol-3-yl)methyl)-24-(4-hydroxybenzyl)-21-(hydroxymethyl)-N,4,16,19-tetramethyl-5,8,11,14,17,20,23,26,30-nonaoxo-18-phenethyl-1,4,7,10,13,16,19,22,25-nonaazacyclotriacontane-3-carboxamide TFA salt] | – | – | – | 8.66 | – | 8.59
CC(=O)NCCCC[C@H]1C(=O)N[C@@H](Cc2c[nH]c3ccc(O)cc23)C(=O)N[C@@H](Cc2c[nH]c3ccccc23)C(=O)N[C@@H](C2CC2)C(=O)N(C)[C@H](C(=O)N(C)[C@@H](Cc2ccc(F)cc2)C(=O)N[C@@H](CCCCNC(=O)CN2CCN(CC(=O)O)CCN(CC(=O)O)CCN(CC(=O)O)CC2)C(N)=O)CNC(=O)CCC[C@H](NC(C)=O)C(=O)N[C@H](Cc2ccc(O)cc2)C(=O)N[C@H](CO)C(=O)N(C)[C@@H](CCc2ccccc2)C(=O)N1C [Example C36] | 6.33 | 6.97 | 6.40 | – | – | –
CC(=O)NCCCC[C@H]1C(=O)N[C@@H](Cc2c[nH]c3ccc(O)cc23)C(=O)N[C@@H](Cc2c[nH]c3ccccc23)C(=O)N[C@@H](C2CC2)C(=O)N(C)[C@H](C(=O)N(C)[C@@H](Cc2ccc(F)cc2)C(=O)N[C@@H](CCCCNC(=O)CC[C@H](C(=O)O)N2CCN(CC(=O)O)CCN(CC(=O)O)CCN(CC(=O)O)CC2)C(N)=O)CNC(=O)CCC[C@H](NC(C)=O)C(=O)N[C@@H](Cc2ccc(O)cc2)C(=O)N[C@@H](CO)C(=O)N(C)[C@@H](CCc2ccccc2)C(=O)N1C [Example C33] | > 10.00 | – | – | – | – | –
COCCOCCOCCOCCOCCOCCOCCOCCOCCOCCOCCOCCC(=O)N[C@H]1CCCC(=O)NC[C@@H](C(=O)N(C)[C@@H](Cc2ccc(F)cc2)C(=O)N[C@@H](CCCCNC(=O)CN2CCN(CC(=O)O)CCN(CC(=O)O)CCN(CC(=O)O)CC2)C(N)=O)N(C)C(=O)[C@H](C2CC2)NC(=O)[C@H](Cc2c[nH]c3ccccc23)NC(=O)[C@H](Cc2c[nH]c3ccc(O)cc23)NC(=O)[C@H](CCCCNC(C)=O)N(C)C(=O)[C@H](CCc2ccccc2)N(C)C(=O)[C@H](CO)NC(=O)[C@H](Cc2ccc(O)cc2)NC1=O [Example C2] | 9.70 | – | – | – | – | –
CC(=O)NCCCC[C@H]1C(=O)N[C@@H](Cc2c[nH]c3ccc(O)cc23)C(=O)N[C@@H](Cc2c[nH]c3ccccc23)C(=O)N[C@@H]([C@H](C)O)C(=O)N(C)[C@H](C(=O)N(C)[C@@H](Cc2ccc(F)cc2)C(=O)N[C@@H](CCCCNC(=O)N2CCN(CC(=O)O)CC2)C(N)=O)CNC(=O)CC[C@H](NC(=O)CN2CCN(CC(=O)O)CCN(CC(=O)O)CCN(CC(=O)O)CC2)C(=O)N[C@@H](Cc2ccc(O)cc2)C(=O)N[C@@H](CO)C(=O)N(C)[C@@H](CCc2ccccc2)C(=O)N1C [Example C27] | 7.27 | – | 7.24 | – | – | –

From US20250332300A1 (priority 2024, published 2025)
